{"source": "the supplement of paper PMC10307832", "assay_in_all_cases": "relative viability (nuclei count vs DMSO), 5 days (fraction); higher = more cells survive", "key": {"NCI-H3122": {"test_system": "NCI-H3122", "details": "first compound 4 µM", "procedure,_shortened": "(§1)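 Five library-drug doses in √10 steps were combined with a fixed anchor-drug dose, or a single drug was given alone, by pin tool to lung cancer cell lines in 1536-well plates the day after seeding. Nuclei were stained and counted after 5 days. Relative viability is the nuclei count in treated wells over that in vehicle wells, taken as the median of duplicate plates.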"}, "COR-L 105": {"test_system": "COR-L 105", "procedure,_shortened": "as §1"}, "NCI-H2009": {"test_system": "NCI-H2009", "procedure,_shortened": "as §1"}, "NCI-H441": {"test_system": "NCI-H441", "procedure,_shortened": "as §1"}, "LU99A": {"test_system": "LU99A", "procedure,_shortened": "as §1"}, "NCI-H1437": {"test_system": "NCI-H1437", "procedure,_shortened": "as §1"}, "PC-14": {"test_system": "PC-14", "procedure,_shortened": "as §1"}, "ABC-1": {"test_system": "ABC-1", "procedure,_shortened": "as §1"}, "NCI-H661": {"test_system": "NCI-H661", "procedure,_shortened": "as §1"}, "HARA": {"test_system": "HARA", "procedure,_shortened": "as §1"}, "NCI-H2170": {"test_system": "NCI-H2170", "procedure,_shortened": "as §1"}, "BEN": {"test_system": "BEN", "procedure,_shortened": "as §1"}, "NCI-H727": {"test_system": "NCI-H727", "procedure,_shortened": "as §1"}}, "data": [{"smiles": "Clc1ccc(Nc2nnc(Cc3ccncc3)c3ccccc23)cc1", "note": "[Vatalanib] + O=C(c1cc(Cc2n[nH]c(=O)c3ccccc23)ccc1F)N1CCN(C(=O)C2CC2)CC1 [Olaparib] (partner 8 µM)", "values": [{"measurement": "relative viability", "setting": "NCI-H3122", "result": 0.598}, {"measurement": "relative viability", "setting": "COR-L 105; first compound 0.04 µM", "result": 0.719}, {"measurement": "relative viability", "setting": "COR-L 105; first compound 0.1265 µM", "result": 0.762}, {"measurement": "relative viability", "setting": "COR-L 105; first compound 0.4 µM", "result": 0.738}, {"measurement": "relative viability", "setting": "COR-L 105; first compound 1.265 µM", "result": 0.645}, {"measurement": "relative viability", "setting": "COR-L 105; first compound 4 µM", "result": 0.703}, {"measurement": "relative viability", "setting": "NCI-H2009; first compound 0.04 µM", "result": 0.703}, {"measurement": "relative viability", "setting": "NCI-H2009; first compound 0.1265 µM", "result": 0.623}, {"measurement": "relative viability", "setting": "NCI-H2009; first compound 0.4 µM", "result": 0.675}, {"measurement": "relative viability", "setting": "NCI-H2009; first compound 1.265 µM", "result": 0.672}, {"measurement": "relative viability", "setting": "NCI-H2009; first compound 4 µM", "result": 0.594}, {"measurement": "relative viability", "setting": "NCI-H441; first compound 0.04 µM", "result": 0.546}, {"measurement": "relative viability", "setting": "NCI-H441; first compound 0.1265 µM", "result": 0.62}, {"measurement": "relative viability", "setting": "NCI-H441; first compound 0.4 µM", "result": 0.51}, {"measurement": "relative viability", "setting": "NCI-H441; first compound 1.265 µM", "result": 0.561}, {"measurement": "relative viability", "setting": "NCI-H441; first compound 4 µM", "result": 0.553}, {"measurement": "relative viability", "setting": "LU99A; first compound 0.04 µM", "result": 0.252}, {"measurement": "relative viability", "setting": "LU99A; first compound 0.1265 µM", "result": 0.281}, {"measurement": "relative viability", "setting": "LU99A; first compound 0.4 µM", "result": 0.237}, {"measurement": "relative viability", "setting": "LU99A; first compound 1.265 µM", "result": 0.23}, {"measurement": "relative viability", "setting": "LU99A; first compound 4 µM", "result": 0.309}, {"measurement": "relative viability", "setting": "NCI-H1437; first compound 0.04 µM", "result": 0.67}, {"measurement": "relative viability", "setting": "NCI-H1437; first compound 0.1265 µM", "result": 0.625}, {"measurement": "relative viability", "setting": "NCI-H1437; first compound 0.4 µM", "result": 0.679}, {"measurement": "relative viability", "setting": "NCI-H1437; first compound 1.265 µM", "result": 0.625}, {"measurement": "relative viability", "setting": "NCI-H1437; first compound 4 µM", "result": 0.606}, {"measurement": "relative viability", "setting": "PC-14; first compound 0.04 µM", "result": 0.192}, {"measurement": "relative viability", "setting": "PC-14; first compound 0.1265 µM", "result": 0.195}, {"measurement": "relative viability", "setting": "PC-14; first compound 0.4 µM", "result": 0.295}, {"measurement": "relative viability", "setting": "PC-14; first compound 1.265 µM", "result": 0.276}, {"measurement": "relative viability", "setting": "PC-14; first compound 4 µM", "result": 0.309}, {"measurement": "relative viability", "setting": "ABC-1; first compound 0.04 µM", "result": 0.642}, {"measurement": "relative viability", "setting": "ABC-1; first compound 0.1265 µM", "result": 0.689}, {"measurement": "relative viability", "setting": "ABC-1; first compound 0.4 µM", "result": 0.421}, {"measurement": "relative viability", "setting": "ABC-1; first compound 4 µM", "result": 0.869}, {"measurement": "relative viability", "setting": "NCI-H661; first compound 0.04 µM", "result": 0.769}, {"measurement": "relative viability", "setting": "NCI-H661; first compound 0.1265 µM", "result": 0.757}, {"measurement": "relative viability", "setting": "NCI-H661; first compound 0.4 µM", "result": 0.788}, {"measurement": "relative viability", "setting": "NCI-H661; first compound 1.265 µM", "result": 0.73}, {"measurement": "relative viability", "setting": "NCI-H661; first compound 4 µM", "result": 0.706}, {"measurement": "relative viability", "setting": "HARA; first compound 0.04 µM", "result": 0.713}, {"measurement": "relative viability", "setting": "HARA; first compound 0.1265 µM", "result": 0.725}, {"measurement": "relative viability", "setting": "HARA; first compound 0.4 µM", "result": 0.875}, {"measurement": "relative viability", "setting": "HARA; first compound 1.265 µM", "result": 0.97}, {"measurement": "relative viability", "setting": "HARA; first compound 4 µM", "result": 0.823}, {"measurement": "relative viability", "setting": "NCI-H2170; first compound 0.04 µM", "result": 0.623}, {"measurement": "relative viability", "setting": "NCI-H2170; first compound 0.1265 µM", "result": 0.656}, {"measurement": "relative viability", "setting": "NCI-H2170; first compound 0.4 µM", "result": 0.702}, {"measurement": "relative viability", "setting": "NCI-H2170; first compound 1.265 µM", "result": 0.512}, {"measurement": "relative viability", "setting": "NCI-H2170; first compound 4 µM", "result": 0.556}, {"measurement": "relative viability", "setting": "BEN; first compound 0.04 µM", "result": 1.03}, {"measurement": "relative viability", "setting": "BEN; first compound 0.1265 µM", "result": 1.01}, {"measurement": "relative viability", "setting": "BEN; first compound 0.4 µM", "result": 1.31}, {"measurement": "relative viability", "setting": "BEN; first compound 1.265 µM", "result": 1.04}, {"measurement": "relative viability", "setting": "BEN; first compound 4 µM", "result": 0.877}, {"measurement": "relative viability", "setting": "NCI-H727; first compound 0.1265 µM", "result": 0.772}, {"measurement": "relative viability", "setting": "NCI-H727; first compound 0.4 µM", "result": 0.761}, {"measurement": "relative viability", "setting": "NCI-H727; first compound 1.265 µM", "result": 0.818}, {"measurement": "relative viability", "setting": "NCI-H727; first compound 4 µM", "result": 0.758}]}]}
